Literature values as cited in patent publication US20220354784A1, “STABLE LATANOPROST COMPOUND OPHTHALMIC COMPOSITIONS” (Somerset Therapeutics LLC, priority 2021, published 2022).

Details: patients starting on monotherapy

| SMILES | rate of adjunctive medication use |
| --- | --- |
| CCNC(=O)CCC/C=C\C[C@@H]1[C@@H](/C=C/[C@@H](O)CCc2ccccc2)[C@H](O)C[C@@H]1O [bimatoprost] | 23.2% |
| CC(C)OC(=O)CCC/C=C\C[C@@H]1[C@@H](CC[C@@H](O)CCc2ccccc2)[C@H](O)C[C@@H]1O [latanoprost, isopropyl (Z)-7[(1R,2R,3R,5S)3,5-dihydroxy-2-[(3R)-3-hydroxy-5-phenylpentyl]cyclopentyl]-5-heptanoate] | 30.2% |
| CC(C)OC(=O)CCC/C=C\C[C@@H]1[C@@H](/C=C/[C@@H](O)COc2cccc(C(F)(F)F)c2)[C@H](O)C[C@@H]1O [travoprost] | 22.5% |
